In US20210401931A1, “METHODS AND MATERIALS FOR TREATING CANCER” (Mayo Foundation for Medical Education and Research, priority 2018, published 2021):
Ends that are not written are not given here.

Test system: NFκB target genes
Experiment: Expression of NFκB target genes in PC-3 cells (RNA-seq, RT-qPCR)
Format: cell-based, human
Conditions: PC-3 cells expressing peptide, TNFα 20 ng/mL, 24 hours
Description: FIGS. 4A-G. RB globally regulates NFkB transcriptional program in cells. […] (F, G) PC-3 cell were treated with or without palbociclib (5 μM) for 24 hours or PC-3 cells were infected with lentivirus expressing control shRNA or RB-specific shRNA following puromycin selection after 48 hours infection. Cells were harvested for RT-qPCR (F) and ChIP-qPCR (G) analysis of p65 binding at the promotor of PD-L1, GADD45B, NR4A2, and CD83. All data were shown as mean values±SD (n=3). * P<0.05, ** P<0.01, ***P<0.001.
FIGS. 16A-K. Mutual exclusivity of PTEN and MAP3K7 gene deletion in human cancers and CDK4/6 inhibition-mediated blockage of MAP3K7 deficiency-induced death of PTEN-null cells. (A) Genetic alterations of MAP3K7 and PTEN genes in the TCGA prostate cancer dataset. (B) Genetic alterations of MAP3K7 and PTEN genes in lymphoid neoplasm diffuse large B-cell lymphoma, stomach adenocarcinoma, pancreatic cancer, liver cancer, bladder urothelial carcinoma, and lung adenocarcinoma. (C-E) PC-3 cells were infected with lentivirus expressing control or MAP3K7-specific shRNAs. 72 hours after infection, cells were harvested for western blotting (C), cell growth assay (D), and colony formation assay (E). All data were shown as mean values±SD (n=3). ns, not significant, * P<0.05 comparing to the shControl group. (F-H) LNCaP-RF prostate cancer cells were infected with lentivirus expressing control or MAP3K7-specific shRNAs. 72 hours after infection, cells were harvested for western blotting (F), cell growth assay (G), and colony formation assay (H). All data are shown as mean values±SD (n=3). ns, not significant, * P<0.05 comparing to the shControl group. (I-K) PC-3 cells were infected with lentivirus expressing control, MAP3K7 or CHD1-specific shRNAs. 72 hours after infection, cells were treated with DMSO or palbociclib (5 μM). […]
FIGS. 17A-I. Negative regulation of MAP3K7-IKK-NFκB and CHD1-NFκB signaling by RB. […] 72 hours after infection and puromycin selection, cells were injected s.c. into the right flank of NSG mice, and tumor growth was measured for 21 days. […]

RL-S249D/T252D: S249/T252 phospho-mimicking R-Linker (RL) peptide: fragment of RB-N containing 21 amino acids surrounding S249/T252, expressed SFB-tagged or by lentivirus (NGDPRDPRRGQNRSARIAKQL; also: expressed SFB-tagged (tag left off))
TNFα-induced expression of NFκB target genes: blocked
